Laboratory results taken from patent US20040220148A1, “5-Membered ring heterocycles as inhibitors of leucocyte adhesion and as VLA-4 antagonists” (Aventis Pharma Deutschland GmbH, priority 1996, published 2004).

biological target: T1, VLA-4 integrins on human U937 cells (interaction between VCAM-1 and VLA-4) (Homo sapiens, UniProt P05556+P13612); experiment: U937/VCAM-1 cell adhesion test (adhesion of U937 cells to hVCAM-1(1-3)-IgG); assay type: cell-based; conditions: concentration leading to 50% inhibition of adhesion
T1 construct: the VLA-4 integrins, are offered in their natural form as surface molecules on human U937 cells; host or cells: U937 cells (VLA-4, endogenous); the partner hVCAM-1(1-3)-IgG came from the supernatant of transfected COS cells (ATCC CRL1651)
From the text: As a test method for the activity of the compounds of the formula I on the interaction between VCAM-1 and VLA-4, an assay which is specific for this interaction is used. The cellular binding components, i.e. the VLA-4 integrins, are offered in their natural form as surface molecules on human U937 cells (ATCC CRL 1593) which belong to the group of leucocytes. As specific binding components, recombinant soluble fusion proteins prepared by genetic engineering and consisting of the extracytoplasmic domains of human VCAM-1 and the constant region of a human immunoglobulin of the subclass IgG1 are used.
Assay for the Measurement of the Adhesion of U937 Cells (ATCC CRL 1593) to hVCAM-1 (1-3)-IgG
1. Preparation of Human VCAM-1(1-3)-IgG and Human CD4-IgG
A genetic construct for the expression of the extracellular domains of human VCAM-1 was employed, associated with the genetic sequence of the heavy chain of human immunoglobulin IgG1 (hinge, CH2 and CH3 regions), from Dr. Brian Seed, Massachusetts General Hospital, Boston, USA. The soluble fusion protein hVCAM-1(1-3)-IgG contained the three amino-terminal extracellular immunoglobulin-like domains of human VCAM-1 (Damle and Aruffo, Proc. Natl. Acad. Sci. USA 1991, 88, 6403). CD4-IgG (Zettlmeissl et al, DNA and Cell Biology 1990, 9, 347) served as a fusion protein for negative controls. The recombinant proteins were expressed as soluble proteins after DEAE/dextran-mediated DNA-transfection in COS cells (ATCC CRL1651) according to standard procedures (Ausubel et al., Current protocols in molecular biology, John Wiley & Sons, Inc., 1994).
2. Assay for Measurement of the Adhesion of U937 Cells to hVCAM-1(1-3)-IgG
2.1 96-well microtiter test plates (Nunc Maxisorb) were incubated at room temperature for 1 hour with 100 μl/well of a goat-anti-human IgG antibody solution (10 μg/ml in 50 mM tris, pH 9.5). After removing the antibody solution, washing was carried out once with PBS.
2.2 150 μl/well of a blocking buffer (1% BSA in PBS) were incubated on the plates at room temperature for 0.5 hours. After removing the blocking buffer, washing was carried out once with PBS.
2.3 100 μl per well of a cell culture supernatant of transfected COS cells were incubated on the plates at room temperature for 1.5 hours. The COS cells were transfected with a plasmid which codes for the three N-terminal immunoglobulin-like domains of VCAM-1, coupled to the Fc part of human IgG1 (hVCAM-1(1-3)-IgG). The content of hVCAM-1 (1-3)-IgG was about […]. After removing the culture supernatant, washing was carried out once with PBS.
2.4 The plates were incubated at room temperature for 20 minutes with […] of Fc receptor blocking buffer (1 mg/ml of γ-globulin, 100 mM NaCl, 100 μM MgCl2, 100 μM MnCl2, 100 μM CaCl2, 1 mg/ml BSA in 50 mM HEPES, pH 7.5). After removing the Fc receptor blocking buffer, washing was carried out once with PBS.
2.5 20 μl of binding buffer (100 mM NaCl, 100 μM MgCl2, 100 μM MgCl2, 100 μM CaCl2, 1 mg/ml BSA in 50 mM HEPES, pH 7.5), were initially introduced, the substances to be tested were added in 10 μl of binding buffer and the mixture was incubated for 20 minutes. As controls, antibodies against VCAM-1 (BBT, No. BBA6) and against VLA-4
(Immunotech, No. 0764) were used.
2.6 U937 cells were incubated in Fc receptor blocking buffer for 20 minutes and then pipetted in at a concentration of 1×10^6/ml and in an amount of 100 μl per well ([…]).
2.7 The plates were slowly immersed at an angle of 45° in stop buffer (100 mM NaCl, 100 μM MgCl2, 100 μM MnCl2, 100 μM CaCl2 in 25 mM Tris, pH 7.5) and shaken off. The process was repeated.
2.8 50 μl/well of a dye solution (16.7 μg/ml of Hoechst dye 33258, 4% formaldehyde, 0.5% Triton X-100 in PBS) were then incubated on the plates for 15 minutes.
2.9 The plates were shaken off and slowly immersed at an angle of 45° in stop buffer (100 mM NaCl, 100 μM MgCl2, 100 μM MnCl2, 100 μM CaCl2 in 25 mM Tris, pH 7.5). The process was repeated. […]

T1 sequence (P13612 34-1032): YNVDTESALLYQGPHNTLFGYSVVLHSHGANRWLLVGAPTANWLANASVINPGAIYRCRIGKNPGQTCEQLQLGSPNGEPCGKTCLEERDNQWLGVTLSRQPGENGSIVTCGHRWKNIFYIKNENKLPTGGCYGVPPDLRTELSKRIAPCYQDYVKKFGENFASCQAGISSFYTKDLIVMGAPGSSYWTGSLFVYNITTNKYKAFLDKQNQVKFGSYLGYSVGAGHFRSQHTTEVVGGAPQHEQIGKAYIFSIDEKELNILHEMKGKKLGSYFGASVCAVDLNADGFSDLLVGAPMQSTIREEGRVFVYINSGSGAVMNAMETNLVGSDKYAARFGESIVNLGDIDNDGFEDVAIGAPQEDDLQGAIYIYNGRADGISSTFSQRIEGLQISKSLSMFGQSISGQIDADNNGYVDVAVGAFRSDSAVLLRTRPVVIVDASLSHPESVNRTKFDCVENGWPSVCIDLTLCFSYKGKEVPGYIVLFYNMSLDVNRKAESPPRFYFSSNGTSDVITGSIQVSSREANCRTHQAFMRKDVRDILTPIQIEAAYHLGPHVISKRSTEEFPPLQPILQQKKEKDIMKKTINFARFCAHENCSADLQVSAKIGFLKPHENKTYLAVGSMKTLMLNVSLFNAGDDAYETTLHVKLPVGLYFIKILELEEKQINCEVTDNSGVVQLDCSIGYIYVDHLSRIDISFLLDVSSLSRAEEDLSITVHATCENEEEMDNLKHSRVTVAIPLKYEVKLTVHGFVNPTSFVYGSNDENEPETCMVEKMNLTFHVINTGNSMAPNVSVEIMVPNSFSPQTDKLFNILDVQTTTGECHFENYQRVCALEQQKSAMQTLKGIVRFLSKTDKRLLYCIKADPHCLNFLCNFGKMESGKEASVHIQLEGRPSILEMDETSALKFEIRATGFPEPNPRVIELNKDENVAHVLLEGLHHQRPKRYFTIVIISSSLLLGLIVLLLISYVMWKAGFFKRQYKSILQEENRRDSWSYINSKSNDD
T1 sequence (P05556 21-798): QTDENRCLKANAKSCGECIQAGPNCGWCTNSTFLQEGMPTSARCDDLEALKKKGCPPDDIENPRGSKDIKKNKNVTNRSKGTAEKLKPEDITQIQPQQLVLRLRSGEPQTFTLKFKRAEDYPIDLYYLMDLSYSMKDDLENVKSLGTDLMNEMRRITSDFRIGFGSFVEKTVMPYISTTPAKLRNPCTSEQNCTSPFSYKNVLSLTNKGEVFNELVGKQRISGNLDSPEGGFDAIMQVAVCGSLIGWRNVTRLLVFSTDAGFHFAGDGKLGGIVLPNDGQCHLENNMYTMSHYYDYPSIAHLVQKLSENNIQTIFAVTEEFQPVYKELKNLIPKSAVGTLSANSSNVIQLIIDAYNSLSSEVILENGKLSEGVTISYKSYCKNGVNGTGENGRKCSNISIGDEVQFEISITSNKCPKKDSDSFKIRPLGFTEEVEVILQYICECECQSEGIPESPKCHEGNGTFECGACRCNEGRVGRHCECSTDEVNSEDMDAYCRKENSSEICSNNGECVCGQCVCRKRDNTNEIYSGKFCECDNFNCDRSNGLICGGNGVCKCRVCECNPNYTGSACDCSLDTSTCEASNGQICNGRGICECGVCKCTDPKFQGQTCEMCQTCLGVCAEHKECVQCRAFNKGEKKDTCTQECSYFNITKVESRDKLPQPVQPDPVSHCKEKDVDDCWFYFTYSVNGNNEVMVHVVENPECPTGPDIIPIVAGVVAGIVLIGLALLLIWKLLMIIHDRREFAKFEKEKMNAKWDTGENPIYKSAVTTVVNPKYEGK

| Compound | IC50 [µM] |
| --- | --- |
| CC1(Cc2ccc(NC(=N)N)cc2)C(=O)N(CC(=O)N[C@@H](CC(=O)O)C(=O)N[C@H](C(=O)O)c2ccccc2)C(=O)N1Cc1ccccc1 (stereo partly drawn) [Example 73, ((R,S)-4-(4-Guanidinobenzyl)-3-benzyl-4-methyl-2,5-dioxoimidazolidin-1-yl)acetyl-L-aspartyl-L-phenylglycine] | 125 |
| ((S)-4-(3-Guanidinopropyl)-3-benzyl-2,5-dioxoimidazolidin-1-yl)acetyl-D-glutamyl-L-phenylglycine-L-tyrosine hydrochloride [Example 40] | 27 |
| ((S)-4-(3-Guarndinopropyl)-3-benzyl-2,5-dioxoimidazolidin-1-yl)acetyl-D-aspartyl-L-phenylglycine-L-tyrosine hydrochloride [Example 39] | 8 |
